According to ChEMBL document CHEMBL3991601, “The target landscape of clinical kinase drugs” (Science, 2017):
Calls of active or inactive are those of the source. For most assays here, no stated cut-off is given here; in the data, actives have a measured Kd and inactives only a lower limit.

Key:
[1] = target: T1, Peroxisomal acyl-coenzyme A oxidase 1 (Homo sapiens, UniProt Q15067)
T1 sequence (Q15067 whole entry): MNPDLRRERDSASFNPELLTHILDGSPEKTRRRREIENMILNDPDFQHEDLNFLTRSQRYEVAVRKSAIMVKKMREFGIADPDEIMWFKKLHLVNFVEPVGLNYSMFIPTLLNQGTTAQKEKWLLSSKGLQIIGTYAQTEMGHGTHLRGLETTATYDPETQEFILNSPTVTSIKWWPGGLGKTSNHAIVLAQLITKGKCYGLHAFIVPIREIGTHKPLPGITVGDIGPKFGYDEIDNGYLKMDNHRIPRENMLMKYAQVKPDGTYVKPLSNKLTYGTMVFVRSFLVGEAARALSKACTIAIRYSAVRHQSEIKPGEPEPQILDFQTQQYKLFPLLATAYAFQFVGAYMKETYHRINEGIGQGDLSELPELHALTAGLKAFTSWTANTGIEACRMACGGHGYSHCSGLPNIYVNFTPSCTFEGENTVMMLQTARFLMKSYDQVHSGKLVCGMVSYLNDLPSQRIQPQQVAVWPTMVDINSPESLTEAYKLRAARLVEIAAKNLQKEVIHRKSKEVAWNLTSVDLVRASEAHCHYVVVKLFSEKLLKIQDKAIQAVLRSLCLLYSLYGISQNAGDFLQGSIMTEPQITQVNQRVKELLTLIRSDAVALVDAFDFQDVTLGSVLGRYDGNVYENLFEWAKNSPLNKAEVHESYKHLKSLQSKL

[2] = target: T2, Adenine phosphoribosyltransferase (Homo sapiens, UniProt P07741)
T2 sequence (P07741 whole entry): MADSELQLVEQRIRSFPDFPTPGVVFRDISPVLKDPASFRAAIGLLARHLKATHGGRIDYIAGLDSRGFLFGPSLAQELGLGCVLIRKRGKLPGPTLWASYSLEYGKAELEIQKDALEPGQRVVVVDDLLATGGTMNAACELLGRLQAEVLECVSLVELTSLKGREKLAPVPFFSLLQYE

[3] = target: T3, Bone morphogenetic protein receptor type-2 (Homo sapiens, UniProt Q13873)
T3 sequence (Q13873 whole entry): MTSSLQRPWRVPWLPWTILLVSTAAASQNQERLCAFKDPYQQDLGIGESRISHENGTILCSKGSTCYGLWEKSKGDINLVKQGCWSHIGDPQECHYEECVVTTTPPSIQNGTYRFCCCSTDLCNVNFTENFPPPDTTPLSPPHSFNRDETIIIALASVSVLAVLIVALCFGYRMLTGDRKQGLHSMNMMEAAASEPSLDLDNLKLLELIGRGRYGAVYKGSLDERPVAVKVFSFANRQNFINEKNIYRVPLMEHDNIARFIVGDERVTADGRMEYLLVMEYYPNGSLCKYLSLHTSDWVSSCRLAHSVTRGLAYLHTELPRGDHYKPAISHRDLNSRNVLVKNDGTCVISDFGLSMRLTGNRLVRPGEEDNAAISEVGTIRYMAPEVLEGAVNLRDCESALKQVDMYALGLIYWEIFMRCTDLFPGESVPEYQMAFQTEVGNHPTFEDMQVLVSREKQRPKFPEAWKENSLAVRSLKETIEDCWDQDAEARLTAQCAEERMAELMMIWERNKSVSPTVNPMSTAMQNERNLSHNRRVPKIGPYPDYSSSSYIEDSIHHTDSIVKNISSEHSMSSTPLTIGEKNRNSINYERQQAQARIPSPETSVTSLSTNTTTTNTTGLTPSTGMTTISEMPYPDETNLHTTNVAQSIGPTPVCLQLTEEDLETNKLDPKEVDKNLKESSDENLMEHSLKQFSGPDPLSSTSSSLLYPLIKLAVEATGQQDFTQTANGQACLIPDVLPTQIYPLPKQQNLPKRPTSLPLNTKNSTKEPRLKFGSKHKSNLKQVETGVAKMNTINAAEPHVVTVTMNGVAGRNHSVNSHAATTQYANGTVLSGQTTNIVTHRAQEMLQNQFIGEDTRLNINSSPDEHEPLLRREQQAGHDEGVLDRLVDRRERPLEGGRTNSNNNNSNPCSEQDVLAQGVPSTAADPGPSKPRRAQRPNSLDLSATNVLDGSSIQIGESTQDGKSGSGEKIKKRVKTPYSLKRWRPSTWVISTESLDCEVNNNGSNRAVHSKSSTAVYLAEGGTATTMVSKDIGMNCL

[4] = target: Chromodomain-helicase-DNA-binding protein 4 (Homo sapiens, UniProt Q14839)
[5] = target: Casein kinase I isoform alpha (Homo sapiens, UniProt P48729)
Casein kinase I isoform alpha, sequence (P48729 whole entry, the tested form may be a part, canonical isoform): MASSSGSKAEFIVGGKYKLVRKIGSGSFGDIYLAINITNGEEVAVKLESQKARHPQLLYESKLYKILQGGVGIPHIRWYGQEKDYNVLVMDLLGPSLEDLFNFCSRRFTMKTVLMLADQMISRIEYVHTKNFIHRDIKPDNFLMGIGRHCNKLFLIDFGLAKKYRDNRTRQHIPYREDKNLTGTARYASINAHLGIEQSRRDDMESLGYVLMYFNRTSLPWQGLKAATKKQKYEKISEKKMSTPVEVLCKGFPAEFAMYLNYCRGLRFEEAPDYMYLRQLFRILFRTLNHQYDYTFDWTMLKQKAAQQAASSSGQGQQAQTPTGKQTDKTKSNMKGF

[6] = target: Epithelial discoidin domain-containing receptor 1 (Homo sapiens, UniProt Q08345)
[7] = target: DnaJ homolog subfamily A member 1 (Homo sapiens, UniProt P31689)
DnaJ homolog subfamily A member 1, sequence (P31689 whole entry): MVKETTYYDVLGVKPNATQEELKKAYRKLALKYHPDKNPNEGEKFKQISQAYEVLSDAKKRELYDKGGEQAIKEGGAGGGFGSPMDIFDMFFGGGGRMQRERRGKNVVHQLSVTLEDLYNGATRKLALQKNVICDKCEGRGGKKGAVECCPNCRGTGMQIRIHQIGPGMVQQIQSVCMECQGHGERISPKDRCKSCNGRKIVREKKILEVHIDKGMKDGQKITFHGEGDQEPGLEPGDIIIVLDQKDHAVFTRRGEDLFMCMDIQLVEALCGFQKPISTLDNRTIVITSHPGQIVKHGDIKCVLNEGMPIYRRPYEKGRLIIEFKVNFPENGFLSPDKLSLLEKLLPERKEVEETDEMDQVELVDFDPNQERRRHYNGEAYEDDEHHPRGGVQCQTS

[8] = target: Mitogen-activated protein kinase kinase kinase 1 (Homo sapiens, UniProt Q13233)
Mitogen-activated protein kinase kinase kinase 1, sequence (Q13233 whole entry): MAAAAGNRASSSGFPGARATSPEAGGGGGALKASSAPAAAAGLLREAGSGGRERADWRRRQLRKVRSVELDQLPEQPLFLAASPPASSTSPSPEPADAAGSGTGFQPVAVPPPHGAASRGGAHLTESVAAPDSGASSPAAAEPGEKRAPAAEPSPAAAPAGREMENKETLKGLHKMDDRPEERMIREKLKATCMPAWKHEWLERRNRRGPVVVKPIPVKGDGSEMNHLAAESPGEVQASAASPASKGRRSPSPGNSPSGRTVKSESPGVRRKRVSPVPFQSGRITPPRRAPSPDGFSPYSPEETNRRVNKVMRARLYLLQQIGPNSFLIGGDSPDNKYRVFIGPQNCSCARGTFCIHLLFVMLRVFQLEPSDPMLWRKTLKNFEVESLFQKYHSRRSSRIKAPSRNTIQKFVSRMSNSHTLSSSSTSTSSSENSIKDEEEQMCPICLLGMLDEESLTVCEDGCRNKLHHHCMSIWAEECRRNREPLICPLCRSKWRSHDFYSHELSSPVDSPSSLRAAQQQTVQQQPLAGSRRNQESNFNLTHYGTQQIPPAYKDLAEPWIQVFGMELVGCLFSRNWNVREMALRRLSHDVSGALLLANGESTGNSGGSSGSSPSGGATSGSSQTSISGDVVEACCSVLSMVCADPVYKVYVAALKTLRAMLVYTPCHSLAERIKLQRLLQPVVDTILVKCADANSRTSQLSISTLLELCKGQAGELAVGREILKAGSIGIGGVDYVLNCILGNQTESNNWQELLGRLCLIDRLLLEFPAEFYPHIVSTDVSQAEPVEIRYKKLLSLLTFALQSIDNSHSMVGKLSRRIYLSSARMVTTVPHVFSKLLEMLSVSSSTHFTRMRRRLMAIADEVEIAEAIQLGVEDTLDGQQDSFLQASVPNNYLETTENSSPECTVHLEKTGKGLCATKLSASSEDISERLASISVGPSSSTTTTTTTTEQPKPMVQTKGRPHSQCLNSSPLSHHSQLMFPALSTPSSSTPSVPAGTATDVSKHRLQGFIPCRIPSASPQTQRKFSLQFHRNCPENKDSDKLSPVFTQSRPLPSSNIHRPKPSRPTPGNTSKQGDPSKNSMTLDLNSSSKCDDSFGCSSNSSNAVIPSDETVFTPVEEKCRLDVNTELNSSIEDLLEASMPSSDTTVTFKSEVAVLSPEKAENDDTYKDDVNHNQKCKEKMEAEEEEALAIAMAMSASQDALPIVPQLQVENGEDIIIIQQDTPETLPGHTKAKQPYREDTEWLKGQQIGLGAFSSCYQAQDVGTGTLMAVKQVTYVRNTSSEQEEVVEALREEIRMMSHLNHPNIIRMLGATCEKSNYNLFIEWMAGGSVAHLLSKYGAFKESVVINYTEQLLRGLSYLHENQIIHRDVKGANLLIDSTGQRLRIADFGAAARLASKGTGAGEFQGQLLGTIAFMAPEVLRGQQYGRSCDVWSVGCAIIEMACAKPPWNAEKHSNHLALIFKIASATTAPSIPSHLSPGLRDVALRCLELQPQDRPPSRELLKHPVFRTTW

[9] = target: Mitogen-activated protein kinase kinase kinase kinase 1 (Homo sapiens, UniProt Q92918)
Mitogen-activated protein kinase kinase kinase kinase 1, sequence (Q92918 whole entry): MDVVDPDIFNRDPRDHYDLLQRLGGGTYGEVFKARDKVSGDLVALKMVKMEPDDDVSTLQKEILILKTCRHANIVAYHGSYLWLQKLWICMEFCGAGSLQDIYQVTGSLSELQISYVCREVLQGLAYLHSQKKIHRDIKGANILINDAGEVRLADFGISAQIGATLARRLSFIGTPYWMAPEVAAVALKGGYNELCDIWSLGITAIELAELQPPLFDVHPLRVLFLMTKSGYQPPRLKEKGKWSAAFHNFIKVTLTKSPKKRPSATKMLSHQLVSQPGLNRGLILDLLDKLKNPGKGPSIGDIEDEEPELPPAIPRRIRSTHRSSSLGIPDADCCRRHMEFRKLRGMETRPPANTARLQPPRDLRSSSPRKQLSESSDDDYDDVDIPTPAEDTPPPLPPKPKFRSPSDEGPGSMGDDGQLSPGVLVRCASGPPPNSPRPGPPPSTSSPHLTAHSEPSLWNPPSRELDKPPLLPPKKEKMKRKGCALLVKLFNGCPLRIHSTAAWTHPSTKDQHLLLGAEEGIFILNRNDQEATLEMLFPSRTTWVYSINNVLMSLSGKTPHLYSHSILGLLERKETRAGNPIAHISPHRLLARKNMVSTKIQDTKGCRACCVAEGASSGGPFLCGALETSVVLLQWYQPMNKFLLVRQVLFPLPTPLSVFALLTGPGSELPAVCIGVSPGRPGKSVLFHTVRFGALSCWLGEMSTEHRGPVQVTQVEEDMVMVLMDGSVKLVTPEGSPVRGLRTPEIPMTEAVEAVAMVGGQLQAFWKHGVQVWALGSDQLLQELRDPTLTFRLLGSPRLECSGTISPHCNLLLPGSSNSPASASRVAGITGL

[10] = target: Ribosomal protein S6 kinase alpha-3 (Homo sapiens, UniProt P51812)
Ribosomal protein S6 kinase alpha-3, sequence (P51812 whole entry): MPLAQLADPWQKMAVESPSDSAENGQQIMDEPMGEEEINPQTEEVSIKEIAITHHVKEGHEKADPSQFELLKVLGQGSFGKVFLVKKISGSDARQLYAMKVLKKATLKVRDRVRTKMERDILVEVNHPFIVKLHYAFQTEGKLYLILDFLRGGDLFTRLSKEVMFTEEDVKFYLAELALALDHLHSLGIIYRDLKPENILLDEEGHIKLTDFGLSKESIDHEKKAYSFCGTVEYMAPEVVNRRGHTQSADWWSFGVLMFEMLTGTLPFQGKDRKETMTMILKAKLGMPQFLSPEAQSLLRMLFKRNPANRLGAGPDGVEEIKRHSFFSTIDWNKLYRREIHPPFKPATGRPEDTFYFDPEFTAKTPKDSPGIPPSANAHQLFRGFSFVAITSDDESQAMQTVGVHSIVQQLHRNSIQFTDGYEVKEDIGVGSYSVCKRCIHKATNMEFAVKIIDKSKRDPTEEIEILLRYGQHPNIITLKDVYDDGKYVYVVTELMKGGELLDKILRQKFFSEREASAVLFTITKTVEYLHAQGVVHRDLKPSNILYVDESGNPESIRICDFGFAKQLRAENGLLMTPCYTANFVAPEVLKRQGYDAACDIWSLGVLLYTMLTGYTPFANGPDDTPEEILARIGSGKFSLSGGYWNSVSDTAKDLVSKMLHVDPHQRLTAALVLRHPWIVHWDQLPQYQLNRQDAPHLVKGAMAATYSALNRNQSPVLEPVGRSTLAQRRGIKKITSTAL

Wee1-like protein kinase = Wee1-like protein kinase (Homo sapiens, UniProt P30291)
Wee1-like protein kinase, sequence (P30291 whole entry): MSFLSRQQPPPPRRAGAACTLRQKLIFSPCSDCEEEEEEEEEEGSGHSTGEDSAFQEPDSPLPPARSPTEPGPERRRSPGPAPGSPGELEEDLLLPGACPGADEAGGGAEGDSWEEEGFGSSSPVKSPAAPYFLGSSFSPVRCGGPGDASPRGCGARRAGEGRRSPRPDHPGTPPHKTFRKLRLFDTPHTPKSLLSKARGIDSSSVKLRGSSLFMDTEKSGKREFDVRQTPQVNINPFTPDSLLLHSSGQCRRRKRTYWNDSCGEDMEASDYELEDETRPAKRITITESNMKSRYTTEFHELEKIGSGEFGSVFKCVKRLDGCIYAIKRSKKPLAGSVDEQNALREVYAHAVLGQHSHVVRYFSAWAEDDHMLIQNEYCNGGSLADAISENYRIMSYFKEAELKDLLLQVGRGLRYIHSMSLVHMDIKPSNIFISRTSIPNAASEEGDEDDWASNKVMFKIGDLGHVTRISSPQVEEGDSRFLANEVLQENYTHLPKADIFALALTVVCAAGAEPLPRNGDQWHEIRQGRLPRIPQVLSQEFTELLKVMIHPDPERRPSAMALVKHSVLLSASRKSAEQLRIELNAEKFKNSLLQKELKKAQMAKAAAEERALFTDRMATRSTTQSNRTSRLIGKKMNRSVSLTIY

| Structure (SMILES) | Kd [1] | Kd [2] | Kd [3] | Kd [4] | Kd [5] | Kd [6] | Kd [7] | Kd [8] | Kd [9] | Kd [10] | Kd (Wee1-like protein kinase) |
| --- | --- | --- | --- | --- | --- | --- | --- | --- | --- | --- | --- |
| Cc1cc(Nc2ncc(Cl)c(Nc3ccccc3S(=O)(=O)C(C)C)n2)c(OC(C)C)cc1C1CCNCC1 [CERITINIB] | > 30 µM (inactive) | > 30 µM (inactive) | > 30 µM (inactive) | > 30 µM (inactive) | > 30 µM (inactive) | > 30 µM (inactive) | > 30 µM (inactive) | > 30 µM (inactive) | > 30 µM (inactive) | > 30 µM (inactive) | > 30 µM (inactive) |
| N#CC1(c2ccc(NC(=O)c3cccnc3NCc3ccncc3)cc2)CCCC1 [RIVOCERANIB] | > 30 µM (inactive) | > 30 µM (inactive) | > 30 µM (inactive) | > 30 µM (inactive) | > 30 µM (inactive) | > 30 µM (inactive) | > 30 µM (inactive) | > 30 µM (inactive) | > 30 µM (inactive) | > 30 µM (inactive) | > 30 µM (inactive) |
| CCNC(=O)C#Cc1ccc2c(c1)NC(=O)/C2=C(\Nc1ccc(CN(C)C)cc1)c1ccccc1 | > 30 µM (inactive) | > 30 µM (inactive) | > 30 µM (inactive) | > 30 µM (inactive) | > 30 µM (inactive) | 0.469 µM (active) | > 30 µM (inactive) | > 30 µM (inactive) | 0.875 µM (active) | 0.734 µM (active) | > 30 µM (inactive) |
| CO[C@H]1C[C@@H]2CC[C@@H](C)[C@@](O)(O2)C(=O)C(=O)N2CCCC[C@H]2C(=O)O[C@H]([C@H](C)C[C@@H]2CC[C@@H](O)[C@H](OC)C2)CC(=O)[C@H](C)/C=C(\C)[C@@H](O)[C@@H](OC)C(=O)[C@H](C)C[C@H](C)/C=C/C=C/C=C/1C [SIROLIMUS] | > 30 µM (inactive) | > 30 µM (inactive) | > 30 µM (inactive) | > 30 µM (inactive) | > 30 µM (inactive) | > 30 µM (inactive) | > 30 µM (inactive) | > 30 µM (inactive) | > 30 µM (inactive) | > 30 µM (inactive) | > 30 µM (inactive) |
| CCS(=O)(=O)c1cccc(-c2cc(C(=O)NC3CCN(C)CC3)c(C)c3[nH]c4ncc(C)cc4c23)c1 [TAK-901] | > 30 µM (inactive) | > 30 µM (inactive) | > 30 µM (inactive) | > 30 µM (inactive) | > 30 µM (inactive) | 13.8 µM (active) | > 30 µM (inactive) | > 30 µM (inactive) | > 30 µM (inactive) | 6 µM (active) | > 30 µM (inactive) |
| O=C(Cc1ccc(-c2ccc(OCCN3CCOCC3)cc2)cn1)NCc1ccccc1 [TIRBANIBULIN] | > 30 µM (inactive) | > 30 µM (inactive) | > 30 µM (inactive) | > 30 µM (inactive) | > 30 µM (inactive) | > 30 µM (inactive) | > 30 µM (inactive) | > 30 µM (inactive) | > 30 µM (inactive) | > 30 µM (inactive) | > 30 µM (inactive) |
| C#Cc1cccc(Nc2ncnc3cc(OC)c(OCCCCCCC(=O)NO)cc23)c1 [CUDC-101] | > 30 µM (inactive) | > 30 µM (inactive) | > 30 µM (inactive) | > 30 µM (inactive) | > 30 µM (inactive) | > 30 µM (inactive) | > 30 µM (inactive) | 1.28 µM (active) | > 30 µM (inactive) | > 30 µM (inactive) | > 30 µM (inactive) |
| CCCCCCCCCCCCCCCCCCOP(=O)([O-])OC1CC[N+](C)(C)CC1 [PERIFOSINE] | > 30 µM (inactive) | > 30 µM (inactive) | > 30 µM (inactive) | > 30 µM (inactive) | > 30 µM (inactive) | > 30 µM (inactive) | > 30 µM (inactive) | > 30 µM (inactive) | > 30 µM (inactive) | > 30 µM (inactive) | > 30 µM (inactive) |
| C[C@H]1CNCCCN1S(=O)(=O)c1cccc2cncc(F)c12 | > 30 µM (inactive) | > 30 µM (inactive) | > 30 µM (inactive) | > 30 µM (inactive) | > 30 µM (inactive) | > 30 µM (inactive) | > 30 µM (inactive) | > 30 µM (inactive) | > 30 µM (inactive) | > 30 µM (inactive) | > 30 µM (inactive) |
| Cc1cnc(NC(=O)Nc2cc(Br)c(C)cc2OC[C@@H]2CNCCO2)cn1 [RABUSERTIB] | > 30 µM (inactive) | > 30 µM (inactive) | > 30 µM (inactive) | > 30 µM (inactive) | > 30 µM (inactive) | > 30 µM (inactive) | > 30 µM (inactive) | > 30 µM (inactive) | > 30 µM (inactive) | > 30 µM (inactive) | > 30 µM (inactive) |
| C[C@@H](Oc1cc(C(=O)Nc2ccc(C(=O)N3CCN(C)CC3)cc2)nnc1N)c1c(Cl)ccc(F)c1Cl | > 30 µM (inactive) | > 30 µM (inactive) | > 30 µM (inactive) | > 30 µM (inactive) | > 30 µM (inactive) | > 30 µM (inactive) | > 30 µM (inactive) | 2.19 µM (active) | > 30 µM (inactive) | > 30 µM (inactive) | > 30 µM (inactive) |
| O=C(Nc1nc2cccc(-c3ccc(CN4CCS(=O)(=O)CC4)cc3)n2n1)C1CC1 [FILGOTINIB] | > 30 µM (inactive) | > 30 µM (inactive) | > 30 µM (inactive) | > 30 µM (inactive) | > 30 µM (inactive) | > 30 µM (inactive) | > 30 µM (inactive) | > 30 µM (inactive) | > 30 µM (inactive) | > 30 µM (inactive) | > 30 µM (inactive) |
| COc1cc([C@@H]2c3cc4c(cc3[C@H](O)[C@H]3COC(=O)[C@@H]23)OCO4)cc(OC)c1OC [AXL-1717] | > 30 µM (inactive) | > 30 µM (inactive) | > 30 µM (inactive) | > 30 µM (inactive) | > 30 µM (inactive) | > 30 µM (inactive) | > 30 µM (inactive) | > 30 µM (inactive) | > 30 µM (inactive) | > 30 µM (inactive) | > 30 µM (inactive) |
| Cc1csc(-c2nnc(Nc3ccc(Oc4ncccc4-c4ccnc(N)n4)cc3)c3ccccc23)c1 [AMG-900] | > 30 µM (inactive) | > 30 µM (inactive) | > 30 µM (inactive) | > 30 µM (inactive) | > 30 µM (inactive) | 0.11 µM (active) | > 30 µM (inactive) | > 30 µM (inactive) | > 30 µM (inactive) | > 30 µM (inactive) | > 30 µM (inactive) |
| COCc1c(-c2ccc(NC(=O)Nc3cc(C(F)(F)F)ccc3F)c(F)c2)c2c(N)ncnn2c1CN1CCOCC1 | > 30 µM (inactive) | > 30 µM (inactive) | > 30 µM (inactive) | > 30 µM (inactive) | > 30 µM (inactive) | 0.314 µM (active) | > 30 µM (inactive) | > 30 µM (inactive) | > 30 µM (inactive) | 5.31 µM (active) | > 30 µM (inactive) |
